From ChEMBL document CHEMBL1201862, “PubChem BioAssay data set” (2004)
Activity calls are given as the source filed them.

Key:
[1] = cells
[2] = molecular target: Major prion protein (Homo sapiens, UniProt P04156); assay type: functional, cell-based
[3] = molecular target: T1, COUP transcription factor 2 (Homo sapiens, UniProt P24468); assay: Luminescence-based cell-based high throughput dose response assay to identify inhibitors of COUP-TFII (NR2F2).; assay type: functional;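 also: HEK293 cells transiently cotransfected with COUP-TFII expression vector and reporter; luciferase reporter luminescence driven by COUP-TFII from the pX2-168 reporter plasmid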
T1 sequence (P24468 whole entry): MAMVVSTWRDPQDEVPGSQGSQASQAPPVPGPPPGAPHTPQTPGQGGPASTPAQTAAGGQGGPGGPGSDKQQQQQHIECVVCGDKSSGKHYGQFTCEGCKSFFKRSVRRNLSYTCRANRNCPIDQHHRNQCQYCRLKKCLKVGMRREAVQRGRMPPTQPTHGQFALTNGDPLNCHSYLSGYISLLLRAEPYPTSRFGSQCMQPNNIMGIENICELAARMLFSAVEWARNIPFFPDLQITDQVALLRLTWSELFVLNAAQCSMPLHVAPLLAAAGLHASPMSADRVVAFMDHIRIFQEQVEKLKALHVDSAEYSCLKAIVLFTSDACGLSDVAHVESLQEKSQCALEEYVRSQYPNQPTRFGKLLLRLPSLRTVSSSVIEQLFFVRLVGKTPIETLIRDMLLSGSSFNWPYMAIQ

[4] = molecular target: T2, DNA repair and recombination protein RAD54-like (Homo sapiens, UniProt Q92698); assay: RAD54 Holliday junction migration blockers – biochemical, fluorescence, cherry-picked samples, dose series, confirmation (AID 651657); assay type: functional
T2 sequence (Q92698 whole entry): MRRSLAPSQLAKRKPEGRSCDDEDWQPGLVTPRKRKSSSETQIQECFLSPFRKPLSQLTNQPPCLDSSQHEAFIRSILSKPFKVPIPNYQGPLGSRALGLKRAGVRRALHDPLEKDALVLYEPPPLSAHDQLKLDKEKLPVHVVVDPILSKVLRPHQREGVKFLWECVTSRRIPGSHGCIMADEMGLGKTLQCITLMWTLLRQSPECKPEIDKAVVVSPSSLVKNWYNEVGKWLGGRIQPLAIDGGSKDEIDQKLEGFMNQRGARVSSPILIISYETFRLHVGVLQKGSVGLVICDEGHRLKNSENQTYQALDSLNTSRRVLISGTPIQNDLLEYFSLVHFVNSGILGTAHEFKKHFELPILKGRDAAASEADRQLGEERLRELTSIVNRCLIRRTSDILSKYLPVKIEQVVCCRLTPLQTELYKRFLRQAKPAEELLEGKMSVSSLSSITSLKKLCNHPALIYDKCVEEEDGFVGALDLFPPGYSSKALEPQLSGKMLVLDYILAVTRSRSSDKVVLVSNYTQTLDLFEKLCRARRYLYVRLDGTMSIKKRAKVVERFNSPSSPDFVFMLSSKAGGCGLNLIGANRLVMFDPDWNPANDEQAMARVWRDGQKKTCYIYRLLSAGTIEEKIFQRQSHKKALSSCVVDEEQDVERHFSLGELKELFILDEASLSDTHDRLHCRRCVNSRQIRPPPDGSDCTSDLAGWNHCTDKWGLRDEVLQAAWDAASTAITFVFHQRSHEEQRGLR

[5] = molecular target: Prothrombin (Homo sapiens, UniProt P00734); assay: Thrombin 1536 HTS Dose Response Confirmation. [Related pubchem assays: 1046 (Thrombin 1536 HTS; hits were confirmed in this assay)]; assay type: functional
[6] = molecular target: T3, Rac GTPase-activating protein 1 (Homo sapiens, UniProt Q9H0H5); assay: blockers of MgcRacGAP-driven Rac1 GTP hydrolysis – biochemical, ADP Hunter fluorescence, primary and confirmatory, confirmation (AID 624330); assay type: functional
T3 sequence (Q9H0H5 whole entry): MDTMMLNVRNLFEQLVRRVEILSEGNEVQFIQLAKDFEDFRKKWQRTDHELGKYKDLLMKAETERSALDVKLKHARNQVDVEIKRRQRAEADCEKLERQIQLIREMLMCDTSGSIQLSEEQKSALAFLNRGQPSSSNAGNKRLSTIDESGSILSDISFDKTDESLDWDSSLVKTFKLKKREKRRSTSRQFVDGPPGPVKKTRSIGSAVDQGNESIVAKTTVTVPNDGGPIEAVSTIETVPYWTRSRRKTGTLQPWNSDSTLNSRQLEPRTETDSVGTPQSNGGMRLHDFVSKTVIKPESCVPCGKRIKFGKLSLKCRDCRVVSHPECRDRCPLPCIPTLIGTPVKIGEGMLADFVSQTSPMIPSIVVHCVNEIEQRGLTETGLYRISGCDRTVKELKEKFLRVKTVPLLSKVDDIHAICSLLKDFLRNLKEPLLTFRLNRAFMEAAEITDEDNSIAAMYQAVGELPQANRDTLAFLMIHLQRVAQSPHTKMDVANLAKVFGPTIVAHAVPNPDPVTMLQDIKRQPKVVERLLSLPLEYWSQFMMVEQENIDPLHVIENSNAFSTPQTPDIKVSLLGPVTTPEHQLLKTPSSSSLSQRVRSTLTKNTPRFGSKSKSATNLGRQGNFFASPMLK

[7] = molecular target: T4, DNA repair protein RAD52 homolog (Homo sapiens, UniProt P43351); assay type: functional, biochemical
T4 sequence (P43351 whole entry): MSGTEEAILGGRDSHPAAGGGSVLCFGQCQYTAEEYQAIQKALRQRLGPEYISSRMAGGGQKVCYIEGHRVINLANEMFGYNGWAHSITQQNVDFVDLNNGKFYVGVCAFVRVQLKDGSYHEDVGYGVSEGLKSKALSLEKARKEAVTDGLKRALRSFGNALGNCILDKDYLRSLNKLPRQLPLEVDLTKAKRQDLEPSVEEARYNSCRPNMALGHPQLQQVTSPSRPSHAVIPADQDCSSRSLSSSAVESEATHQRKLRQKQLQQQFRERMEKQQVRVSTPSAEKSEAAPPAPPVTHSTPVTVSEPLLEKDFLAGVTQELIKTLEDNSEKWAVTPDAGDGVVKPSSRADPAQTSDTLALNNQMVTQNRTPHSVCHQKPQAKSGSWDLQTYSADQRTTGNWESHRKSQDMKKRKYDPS

[8] = molecular target: T5, Heat shock factor protein 1 (Mus musculus, UniProt P38532); assay: decrease of HSF1-responsive luciferase luminescence – cell-based, NIH3T3, dose retest, confirmation (AID 2382); assay type: functional;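 also: NIH3T3 fibroblasts with HSF1-driven luciferase reporter stressed by proteasome inhibitor MG132; luminescence from HSF1-driven luciferase expression after 8 hours of MG132 stress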
T5 sequence (P38532 whole entry): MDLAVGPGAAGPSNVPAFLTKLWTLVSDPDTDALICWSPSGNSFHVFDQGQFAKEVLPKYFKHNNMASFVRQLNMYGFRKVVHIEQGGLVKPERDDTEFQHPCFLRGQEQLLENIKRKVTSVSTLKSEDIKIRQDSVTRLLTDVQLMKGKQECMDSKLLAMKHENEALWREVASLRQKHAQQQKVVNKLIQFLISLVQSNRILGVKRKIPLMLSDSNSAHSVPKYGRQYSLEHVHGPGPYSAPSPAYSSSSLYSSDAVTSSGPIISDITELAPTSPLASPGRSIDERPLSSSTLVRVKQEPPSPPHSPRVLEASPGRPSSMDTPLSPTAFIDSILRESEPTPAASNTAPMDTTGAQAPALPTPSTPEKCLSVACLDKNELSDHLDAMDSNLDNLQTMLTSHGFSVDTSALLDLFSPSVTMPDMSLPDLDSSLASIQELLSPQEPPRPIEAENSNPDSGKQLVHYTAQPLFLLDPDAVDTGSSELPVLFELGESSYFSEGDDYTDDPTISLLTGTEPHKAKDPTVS

[9] = molecular target: T6, Caspase-6 (Homo sapiens, UniProt P55212); assay: inhibition of CASP6 peptide cleavage – biochemical, VEID-R110 fluorescence, cherry-pick, dose response (AID 720632)
T6 sequence (P55212 whole entry): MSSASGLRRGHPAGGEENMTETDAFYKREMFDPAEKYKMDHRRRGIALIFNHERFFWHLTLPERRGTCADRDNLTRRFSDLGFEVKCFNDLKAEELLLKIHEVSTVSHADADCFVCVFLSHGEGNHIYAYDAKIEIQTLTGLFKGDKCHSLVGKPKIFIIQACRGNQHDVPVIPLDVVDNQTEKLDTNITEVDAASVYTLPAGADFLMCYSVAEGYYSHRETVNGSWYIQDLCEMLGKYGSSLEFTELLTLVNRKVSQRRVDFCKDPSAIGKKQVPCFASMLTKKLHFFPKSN

[10] = molecular target: Paired box protein Pax-8 (Homo sapiens, UniProt Q06710); assay: PAX8 transcriptional activity inhibition in RMG-I – RMG-I cells, luciferase, cherry-pick, dose response (AID 687027); assay type: functional, cell-based;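 also: luciferase reporter driven by Pax8 target thyroperoxidase promoter measured by SteadyGlo luminescence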
[11] = general cell-killing toxicity readout – plate reader, dry powder samples, cytotoxicity control for PAX8 inhibitor project, dose response (AID 743021); assay type: functional, cell-based
[12] = molecular target: T7, Histone-lysine N-methyltransferase NSD2 (Homo sapiens, UniProt O96028); assay type: biochemical
T7 sequence (O96028 whole entry): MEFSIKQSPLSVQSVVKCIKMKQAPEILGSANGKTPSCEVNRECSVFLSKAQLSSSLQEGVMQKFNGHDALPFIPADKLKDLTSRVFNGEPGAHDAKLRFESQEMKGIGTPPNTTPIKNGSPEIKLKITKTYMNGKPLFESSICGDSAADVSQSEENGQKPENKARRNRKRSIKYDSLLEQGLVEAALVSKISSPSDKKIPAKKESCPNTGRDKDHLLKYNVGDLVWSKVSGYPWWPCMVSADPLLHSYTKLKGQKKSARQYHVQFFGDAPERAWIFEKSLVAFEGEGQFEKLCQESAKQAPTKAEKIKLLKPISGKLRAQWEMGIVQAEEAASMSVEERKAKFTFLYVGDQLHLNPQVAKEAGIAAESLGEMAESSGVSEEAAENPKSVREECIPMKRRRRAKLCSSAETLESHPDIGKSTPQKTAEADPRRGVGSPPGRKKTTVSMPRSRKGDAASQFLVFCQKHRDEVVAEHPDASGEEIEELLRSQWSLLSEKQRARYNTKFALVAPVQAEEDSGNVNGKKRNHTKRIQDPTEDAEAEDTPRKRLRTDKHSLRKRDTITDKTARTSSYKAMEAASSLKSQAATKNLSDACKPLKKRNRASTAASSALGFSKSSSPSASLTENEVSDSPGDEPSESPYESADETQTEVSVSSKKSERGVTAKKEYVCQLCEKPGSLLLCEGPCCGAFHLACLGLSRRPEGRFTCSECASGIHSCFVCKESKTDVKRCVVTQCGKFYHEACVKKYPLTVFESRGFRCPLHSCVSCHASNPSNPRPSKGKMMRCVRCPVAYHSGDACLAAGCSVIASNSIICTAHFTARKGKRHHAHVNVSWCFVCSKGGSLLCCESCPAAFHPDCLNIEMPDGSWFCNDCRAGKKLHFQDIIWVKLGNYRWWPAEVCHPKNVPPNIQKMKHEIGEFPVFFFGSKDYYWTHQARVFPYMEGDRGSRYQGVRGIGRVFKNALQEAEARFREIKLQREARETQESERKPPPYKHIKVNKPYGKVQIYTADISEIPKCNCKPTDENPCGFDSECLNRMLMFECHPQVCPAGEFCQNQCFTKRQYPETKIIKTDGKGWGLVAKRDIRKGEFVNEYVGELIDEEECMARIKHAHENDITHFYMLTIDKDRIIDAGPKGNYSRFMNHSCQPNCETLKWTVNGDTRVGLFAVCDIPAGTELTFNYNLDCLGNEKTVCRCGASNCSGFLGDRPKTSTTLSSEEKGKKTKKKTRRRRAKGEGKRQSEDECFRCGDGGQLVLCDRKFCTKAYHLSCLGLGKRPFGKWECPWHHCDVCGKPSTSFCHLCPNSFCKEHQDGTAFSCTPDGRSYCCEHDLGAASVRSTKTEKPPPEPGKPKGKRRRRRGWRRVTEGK

[13] = non-specific 3'UTR reporter inhibition in Clone20-Shn3RL – cell-based, Renilla luciferase, cherry-picked, counter-screen for Shn3 inhibitor project, dose response (AID 624133); assay type: functional
[14] = viability loss in HeLa cells – cytotoxicity control for MgcRacGAP inhibitor project, dose response (AID 624300); assay type: functional
[15] = reduction of Shn3 3'UTR-driven luciferase in osteoblasts – cell-based, Clone20 osteoblasts, firefly luciferase, cherry-picked, dose response (AID 624132); assay type: functional;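 also: firefly luciferase luminescence from reporter carrying the Shn3 3'UTR in osteoblasts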
[16] = loss of viability in HepG2 cells – cell-based, CellTiter-Glo, cherry-picked, cytotoxicity control for Shn3 inhibitor project, dose response (AID 624134); assay type: functional
[17] = molecular target: Genome polyprotein (dengue virus type 2, UniProt P29990); assay: flavivirus cap methylation enzyme inhibition – biochemical, confirmation dose response, primary screen (AID 588689); assay type: functional

With `O=C(COC(=O)CSc1ccc2ccccc2c1Br)NC1CC1` the IC50 [1] was > 138 µM (inactive) and the IC50 [2] was 4.72 µM (active).

In the case of `CCOCCCN=C(S)N1CCN(c2nc(-c3ccc(F)cc3)cs2)CC1`, the IC50 [3] is reported as 8.63 µM (active).

In the case of `CN(C)CCCNc1ncnc2sc(-c3ccccc3)cc12`, the AC50 [4] is reported as 17.4 µM (active), the IC50 [5] is reported as > 50 µM (not active) and the IC50 [6] is reported as 29.9 µM (active). The AC50 [7] was 14.6 µM (active).

In the case of `CC(C)(C)c1ccc(-c2nnc3sc(-c4ccccn4)nn23)cc1`, the EC50 [8] is reported as 0.871 µM (active) and the IC50 [3] is reported as > 85.4 µM (inactive).

For `Cc1cc2cccc(C)c2nc1SCC(=O)NNC(=O)c1ccco1`, the IC50 [1] was > 138 µM (inactive) and the IC50 [2] was 7.04 µM (active).

In the case of `Cn1c(=S)sc2ccc3ccccc3c21`, the IC50 [1] is reported as 138 µM (inactive) and the IC50 [2] is reported as 6.25 µM (active).

For `Cc1cc(=O)n2c3c(c4c(cc13)c(CN(C)C)cc(=O)n4C)OC2`, the AC50 [9] was 4.06 µM (active), the AC50 [10] was 16.8 µM (active) and the AC50 [11] was 50 µM (active).

For `CCN(CC)CC(C)(C)C(=O)/C=C/c1ccc(/C=C/C(=O)C(C)(C)CN(CC)CC)cc1`, the AC50 [12] was > 20 µM (inactive), the AC50 [13] was 1.78 µM (active) and the AC50 [10] was 2.2 µM (active). For the same compound, the CC50 [14] was 65.5 µM (active), the IC50 [6] was 158 µM (active) and the AC50 [15] was 0.468 µM (active). For the same compound, the AC50 [16] was 5.07 µM (active).

With `CC1=C/C(=C(\c2cc(C)c(O)c(Br)c2)c2ccccc2S(=O)(=O)O)C=C(Br)C1=O` the AC50 [12] was 14.6 µM (active), the CC50 [14] was 100 µM (active) and the IC50 [6] was 79.4 µM (active). For the same compound, the IC50 [17] was 53.2 µM (active).

With `CCC(OC(=O)c1ccc(S(C)(=O)=O)c([N+](=O)[O-])c1)C(=O)NC1C2CC3CC(C2)CC1C3` (configuration not stated) the AC50 [13] was 4.49 µM (active), the AC50 [10] was 8.07 µM (active) and the AC50 [15] was 1.66 µM (active). For the same compound, the AC50 [16] was 7.27 µM (active) and the AC50 [11] was 31.1 µM (active).
